ChEMBL document CHEMBL1201862, “PubChem BioAssay data set” (2004)
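Each compound was tested at five concentrations against cells in 96-well plates for 48 hours. Here, GI50 denotes the concentration required for 50% inhibition of growth.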 The source made the active and inactive calls. No stated cut-off is given here; in the data, active = GI50 up to about 1.1 µM and inactive = higher.

What was measured:
Assay in all cases: DTP human tumour cell line panel, 48 h
[1] = tested on: BT-549
[2] = tested on: CAKI-1
[3] = tested on: EKVX
[4] = tested on: HCT-116
[5] = tested on: HT-29
[6] = tested on: Hs-578T
[7] = tested on: IGROV-1
[8] = tested on: MDA-MB-435
[9] = tested on: Malme-3M
[10] = tested on: NCI/ADR-RES
[11] = tested on: OVCAR-3
[12] = tested on: OVCAR-5
[13] = tested on: RXF 393
[14] = tested on: SF-539
[15] = tested on: SK-MEL-2
[16] = tested on: SK-MEL-5
[17] = tested on: SR
[18] = tested on: TK-10
[19] = tested on: U-251
[20] = tested on: UACC-257

CN(C)Cc1cc(C(F)(F)F)ccc1C(O)(c1ccccc1)c1ccccc1
GI50 [1]: > 10 µM (inactive)
GI50 [2]: 12.8 µM (inactive)
GI50 [3]: 15.4 µM (inactive)
GI50 [4]: 13 µM (inactive)
GI50 [5]: 5.05 µM (inactive)
GI50 [6]: 26.9 µM (inactive)
GI50 [7]: 15.9 µM (inactive)
GI50 [8]: 18.8 µM (inactive)
GI50 [9]: 15.2 µM (inactive)
GI50 [10]: 15.2 µM (inactive)
GI50 [11]: 27.8 µM (inactive)
GI50 [12]: 14.4 µM (inactive)
GI50 [13]: 11.8 µM (inactive)
GI50 [14]: 17 µM (inactive)
GI50 [15]: 18.3 µM (inactive)
GI50 [16]: 14.1 µM (inactive)
GI50 [17]: 12.6 µM (inactive)
GI50 [18]: 17.2 µM (inactive)
GI50 [19]: 11.8 µM (inactive)
GI50 [20]: 11.6 µM (inactive)

CCON=C1C(C)(C)C(C)(C)C(C)(C)C1(C)C
GI50 [1]: > 100 µM (inactive)
GI50 [2]: > 100 µM (inactive)
GI50 [3]: > 100 µM (inactive)
GI50 [4]: > 100 µM (inactive)
GI50 [5]: > 100 µM (inactive)
GI50 [6]: > 100 µM (inactive)
GI50 [7]: > 100 µM (inactive)
GI50 [8]: > 100 µM (inactive)
GI50 [9]: > 100 µM (inactive)
GI50 [10]: > 100 µM (inactive)
GI50 [11]: > 100 µM (inactive)
GI50 [12]: > 100 µM (inactive)
GI50 [13]: > 100 µM (inactive)
GI50 [14]: > 100 µM (inactive)
GI50 [15]: > 100 µM (inactive)
GI50 [16]: > 100 µM (inactive)
GI50 [17]: > 100 µM (inactive)
GI50 [18]: > 100 µM (inactive)
GI50 [19]: > 100 µM (inactive)
GI50 [20]: > 100 µM (inactive)

CNC(=O)C(C)NC(=O)C(Cc1ccccc1)NC(=O)c1ccccc1 (stereo not drawn)
GI50 [1]: > 100 µM (inactive)
GI50 [2]: > 100 µM (inactive)
GI50 [3]: > 100 µM (inactive)
GI50 [4]: > 100 µM (inactive)
GI50 [5]: > 100 µM (inactive)
GI50 [6]: > 100 µM (inactive)
GI50 [7]: > 100 µM (inactive)
GI50 [8]: > 100 µM (inactive)
GI50 [9]: > 100 µM (inactive)
GI50 [10]: > 100 µM (inactive)
GI50 [11]: > 100 µM (inactive)
GI50 [12]: > 100 µM (inactive)
GI50 [13]: > 100 µM (inactive)
GI50 [14]: > 100 µM (inactive)
GI50 [15]: > 100 µM (inactive)
GI50 [16]: > 100 µM (inactive)
GI50 [17]: > 100 µM (inactive)
GI50 [18]: > 100 µM (inactive)
GI50 [19]: > 100 µM (inactive)
GI50 [20]: > 100 µM (inactive)

COc1ccc(SCc2cc(OC)c(OC)c(OC)c2)cc1OC
GI50 [1]: 30 µM (inactive)
GI50 [2]: 44.5 µM (inactive)
GI50 [3]: 43.4 µM (inactive)
GI50 [4]: 61.7 µM (inactive)
GI50 [5]: 67.6 µM (inactive)
GI50 [6]: 54 µM (inactive)
GI50 [7]: 80.4 µM (inactive)
GI50 [8]: 11.2 µM (inactive)
GI50 [9]: 55.2 µM (inactive)
GI50 [10]: 32.4 µM (inactive)
GI50 [11]: > 56 µM (inactive)
GI50 [12]: > 94.6 µM (inactive)
GI50 [13]: > 95.5 µM (inactive)
GI50 [14]: > 80.2 µM (inactive)
GI50 [15]: 23 µM (inactive)
GI50 [16]: 15.8 µM (inactive)
GI50 [17]: 53.8 µM (inactive)
GI50 [18]: > 91.4 µM (inactive)
GI50 [19]: 53.8 µM (inactive)
GI50 [20]: 45.6 µM (inactive)

CCOC(=O)c1c(-c2ccc(OC)cc2)c(C#N)c(=S)n(C2OC(COC(C)=O)C(OC(C)=O)C(OC(C)=O)C2OC(C)=O)c1-c1ccccc1 (stereo not drawn)
GI50 [1]: > 100 µM (inactive)
GI50 [2]: > 100 µM (inactive)
GI50 [4]: > 100 µM (inactive)
GI50 [5]: > 100 µM (inactive)
GI50 [6]: 29.9 µM (inactive)
GI50 [7]: > 100 µM (inactive)
GI50 [8]: > 100 µM (inactive)
GI50 [9]: > 100 µM (inactive)
GI50 [10]: > 100 µM (inactive)
GI50 [11]: > 100 µM (inactive)
GI50 [12]: > 100 µM (inactive)
GI50 [13]: > 100 µM (inactive)
GI50 [14]: > 100 µM (inactive)
GI50 [15]: > 100 µM (inactive)
GI50 [16]: 40.6 µM (inactive)
GI50 [17]: > 100 µM (inactive)
GI50 [18]: > 100 µM (inactive)
GI50 [19]: > 100 µM (inactive)
GI50 [20]: > 100 µM (inactive)

O=C(NCc1cccc(C(F)(F)F)c1)c1cc2sccc2nc1C(F)(F)F
GI50 [1]: > 100 µM (inactive)
GI50 [2]: 62.1 µM (inactive)
GI50 [3]: > 100 µM (inactive)
GI50 [4]: > 100 µM (inactive)
GI50 [5]: > 100 µM (inactive)
GI50 [6]: 26.9 µM (inactive)
GI50 [7]: > 100 µM (inactive)
GI50 [8]: > 100 µM (inactive)
GI50 [9]: > 100 µM (inactive)
GI50 [10]: > 100 µM (inactive)
GI50 [11]: 83.4 µM (inactive)
GI50 [12]: > 100 µM (inactive)
GI50 [13]: 27.7 µM (inactive)
GI50 [14]: 63.7 µM (inactive)
GI50 [15]: > 100 µM (inactive)
GI50 [16]: 93.1 µM (inactive)
GI50 [17]: > 100 µM (inactive)
GI50 [18]: 64 µM (inactive)
GI50 [19]: 27.4 µM (inactive)
GI50 [20]: > 100 µM (inactive)

Cc1[nH]c2ncn(Nc3ccccc3)c(=N)c2c1Cc1ccccc1
GI50 [1]: 3.34 µM (inactive)
GI50 [2]: 24.4 µM (inactive)
GI50 [3]: 5.89 µM (inactive)
GI50 [4]: 0.522 µM (active)
GI50 [5]: 2.6 µM (inactive)
GI50 [6]: 8.28 µM (inactive)
GI50 [7]: 3.85 µM (inactive)
GI50 [8]: 0.491 µM (active)
GI50 [9]: > 38.7 µM (inactive)
GI50 [10]: 29.6 µM (inactive)
GI50 [11]: 30.1 µM (inactive)
GI50 [12]: 11.2 µM (inactive)
GI50 [13]: 30.6 µM (inactive)
GI50 [14]: > 100 µM (inactive)
GI50 [15]: 0.142 µM (active)
GI50 [16]: 0.386 µM (active)
GI50 [17]: 21.2 µM (inactive)
GI50 [18]: > 75.9 µM (inactive)
GI50 [19]: 19.7 µM (inactive)
GI50 [20]: 0.462 µM (active)

O=C1c2cc([N+](=O)[O-])sc2C(=O)c2c([N+](=O)[O-])csc21
GI50 [1]: 0.802 µM (active)
GI50 [2]: 1.11 µM (active)
GI50 [3]: 1.48 µM (inactive)
GI50 [4]: 0.456 µM (active)
GI50 [5]: 1.17 µM (inactive)
GI50 [6]: 0.65 µM (active)
GI50 [7]: 0.4 µM (active)
GI50 [8]: 0.168 µM (active)
GI50 [9]: 0.274 µM (active)
GI50 [10]: 1.48 µM (inactive)
GI50 [11]: 0.122 µM (active)
GI50 [12]: 1.65 µM (inactive)
GI50 [13]: 0.706 µM (active)
GI50 [14]: 0.349 µM (active)
GI50 [15]: 1.53 µM (inactive)
GI50 [16]: 0.166 µM (active)
GI50 [17]: 0.0479 µM (active)
GI50 [18]: 1.63 µM (inactive)
GI50 [19]: 0.379 µM (active)
GI50 [20]: 0.386 µM (active)

NCC1OC(OC2C(N)CC(N)C(O)C2OC2OC(CO)C(O)C2O)C(N)C(O)C1O (stereo not drawn)
GI50 [1]: > 100 µM (inactive)
GI50 [2]: > 100 µM (inactive)
GI50 [3]: > 100 µM (inactive)
GI50 [5]: > 50 µM (inactive)
GI50 [6]: > 100 µM (inactive)
GI50 [7]: > 50 µM (inactive)
GI50 [8]: > 100 µM (inactive)
GI50 [9]: > 100 µM (inactive)
GI50 [10]: > 100 µM (inactive)
GI50 [11]: > 100 µM (inactive)
GI50 [12]: > 100 µM (inactive)
GI50 [13]: > 50 µM (inactive)
GI50 [14]: > 100 µM (inactive)
GI50 [15]: > 50 µM (inactive)
GI50 [16]: > 50 µM (inactive)
GI50 [17]: > 50 µM (inactive)
GI50 [18]: > 50 µM (inactive)
GI50 [19]: > 100 µM (inactive)
GI50 [20]: > 50 µM (inactive)

N/C(=N\N/C=C1\C=Nc2cc(C(F)(F)F)ccc2C1=O)NO
GI50 [1]: > 10 µM (inactive)
GI50 [2]: > 10 µM (inactive)
GI50 [3]: > 10 µM (inactive)
GI50 [4]: > 10 µM (inactive)
GI50 [5]: > 10 µM (inactive)
GI50 [6]: > 10 µM (inactive)
GI50 [7]: > 10 µM (inactive)
GI50 [8]: > 10 µM (inactive)
GI50 [9]: > 10 µM (inactive)
GI50 [10]: > 10 µM (inactive)
GI50 [11]: > 10 µM (inactive)
GI50 [12]: > 10 µM (inactive)
GI50 [13]: > 10 µM (inactive)
GI50 [14]: > 10 µM (inactive)
GI50 [15]: > 10 µM (inactive)
GI50 [16]: > 10 µM (inactive)
GI50 [17]: > 10 µM (inactive)
GI50 [18]: > 10 µM (inactive)
GI50 [19]: > 10 µM (inactive)
GI50 [20]: > 10 µM (inactive)
